Literature values as cited in patent publication US20240342171A1, “DISCOVERY OF A F-ATP SYNTHASE INHIBITOR FOR THE TREATMENT OF MYCOBACTERIUM ABSCESSUS DISEASES” (priority 2021, published 2024).
Values after ≈ are worked out from the molar mass of the structure shown.

Tests used:
M. abscessus = settings: for mode of action against M. abscessus: background statement; for MIC of clinically used anti-M. abscessus drugs: Brown-Elliott et al. 2016
[1] = mouse liver microsomes; Hotra et al. 2020
[2] = Hotra et al. 2020

Structure (SMILES): COc1nc2ccc(Br)cc2cc1[C@@H](c1ccccc1)[C@@](O)(CCN(C)C)c1cccc2ccccc12 [BDQ, bedaquiline]
- mode of action against M. abscessus (M. abscessus): mostly bacteriostatic

Structure (SMILES): CC(C)/N=c1\cc2n(-c3ccc(Cl)cc3)c3ccccc3nc-2cc1Nc1ccc(Cl)cc1 [CFZ, clofazimine]
- MIC50 (M. abscessus; Ferro et al. 2016): 6.8 µM (≈ 3.22 µg/mL)
- mode of action against M. abscessus (M. abscessus): mostly bacteriostatic

Structure (SMILES): CCNc1cc(C)nc(Nc2ccc(NC(=O)c3cccc(Br)c3)cc2)n1 [GaMF1]
- metabolic stability [1]: good metabolic stability
- c log P [2]: 4.37

Structure (SMILES): COc1cc([C@](O)(CCN(C)C)[C@@H](c2cc3cc(Br)ccc3nc2OC)c2cc(OC)nc(OC)c2OC)cc(OC)n1 [TBAJ876]
- mode of action against M. abscessus (M. abscessus): mostly bacteriostatic

Structure (SMILES): NCC[C@H](O)C(=O)N[C@@H]1C[C@H](N)[C@@H](O[C@H]2O[C@H](CN)[C@@H](O)[C@H](O)[C@H]2O)[C@H](O)[C@H]1O[C@H]1O[C@H](CO)[C@@H](O)[C@H](N)[C@H]1O [amikacin]
- MIC of clinically used anti-M. abscessus drugs (M. abscessus; Ferro et al. 2016): 55 µM

Structure (SMILES): CO[C@@]1(NC(=O)Cc2cccs2)C(=O)N2C(C(=O)O)=C(COC(N)=O)CS[C@@H]21 [cefocetin]
- MIC50 of first line drugs (M. abscessus; […]): 43 µM

Structure (SMILES): CO[C@@]1(NC(=O)Cc2cccs2)C(=O)N2C(C(=O)O)=C(COC(N)=O)CS[C@@H]21 [cefoxitin]
- MIC of clinically used anti-M. abscessus drugs (M. abscessus; Ferro et al. 2016): 38 µM

Structure (SMILES): CO[C@H]1/C=C/O[C@@]2(C)Oc3c(C)c(O)c4c(c3C2=O)C2=NC3(CCN(CC(C)C)CC3)NC2=C(NC(=O)/C(C)=C\C=C\[C@H](C)[C@H](O)[C@@H](C)[C@@H](O)[C@@H](C)[C@H](OC(C)=O)[C@@H]1C)C4=O [rifabutin]
- MIC (M. abscessus): 1 to 4 µM
